In the NIST ThermoML archive (doi:10.1021/je034162x):

Details: 101.33 kPa, Liquid, Hot wire method

Cc1cccc(C)c1C [1,2,3-trimethylbenzene]
Details	thermal conductivity [W/m/K]	thermal diffusivity [m2/s]
257.62 K	0.1341	–
257.83 K	0.134	–
257.99 K	0.134	–
258.45 K	–	8.6e-08
259 K	–	8.55e-08
259.4 K	–	8.56e-08
276.36 K	0.1312	–
276.58 K	0.1312	–
276.73 K	0.1311	–
277.15 K	–	8.25e-08
277.71 K	–	8.21e-08
278.1 K	–	8.2e-08
283.35 K	0.1303	–
283.57 K	0.1302	–
283.74 K	0.1302	–
284.17 K	–	8.15e-08
284.73 K	–	8.14e-08
285.14 K	–	8.15e-08
295.58 K	0.1281	–
295.81 K	0.1279	–
295.99 K	0.1279	–
296.43 K	–	8.04e-08
297.01 K	–	8.01e-08
297.45 K	–	8.04e-08
312.79 K	0.1252	–
313.04 K	0.1252	–
313.21 K	0.1251	–
313.65 K	–	7.79e-08
314.26 K	–	7.81e-08
314.68 K	–	7.78e-08
330.74 K	0.1218	–
330.99 K	0.1218	–
331.17 K	0.1217	–
331.59 K	–	7.49e-08
332.23 K	–	7.53e-08
332.65 K	–	7.51e-08

Cc1ccc(C)c(C)c1 [1,2,4-trimethylbenzene]
Details	thermal conductivity [W/m/K]	thermal diffusivity [m2/s]
257.58 K	0.1345	–
257.79 K	0.1344	–
257.93 K	0.1344	–
258.32 K	–	8.89e-08
258.85 K	–	8.91e-08
259.23 K	–	8.92e-08
276.33 K	0.1314	–
276.54 K	0.1313	–
276.69 K	0.1312	–
277.09 K	–	8.61e-08
277.61 K	–	8.58e-08
277.99 K	–	8.6e-08
283.32 K	0.1301	–
283.54 K	0.13	–
283.68 K	0.1299	–
284.07 K	–	8.48e-08
284.63 K	–	8.52e-08
284.98 K	–	8.47e-08
295.54 K	0.1277	–
295.76 K	0.1277	–
295.91 K	0.1275	–
296.3 K	–	8.26e-08
296.84 K	–	8.28e-08
297.21 K	–	8.25e-08
312.75 K	0.1244	–
312.98 K	0.1242	–
313.13 K	0.1241	–
313.53 K	–	8e-08
314.08 K	–	8e-08
314.44 K	–	7.96e-08
330.69 K	0.1205	–
330.93 K	0.1205	–
331.09 K	0.1204	–
331.46 K	–	7.65e-08
332.04 K	–	7.69e-08
332.43 K	–	7.68e-08

Cc1ccccc1C [1,2-dimethylbenzene]
Details	thermal conductivity [W/m/K]	thermal diffusivity [m2/s]
257.75 K	0.1368	–
257.96 K	0.1369	–
258.1 K	0.1368	–
258.47 K	–	9.16e-08
259 K	–	9.21e-08
259.35 K	–	9.19e-08
277.07 K	0.1334	–
277.27 K	0.1333	–
277.42 K	0.1333	–
277.79 K	–	8.78e-08
278.28 K	–	8.75e-08
278.66 K	–	8.79e-08
295.56 K	0.1296	–
295.78 K	0.1296	–
295.91 K	0.1294	–
296.29 K	–	8.46e-08
296.81 K	–	8.48e-08
297.15 K	–	8.42e-08
312.07 K	0.1259	–
312.29 K	0.1258	–
312.44 K	0.1257	–
312.82 K	–	8.18e-08
313.34 K	–	8.17e-08
313.7 K	–	8.15e-08
328.72 K	0.1222	–
328.94 K	0.122	–
329.09 K	0.1219	–
329.45 K	–	7.83e-08
329.98 K	–	7.83e-08
330.35 K	–	7.81e-08

Cc1cc(C)cc(C)c1 [1,3,5-trimethylbenzene]
Details	thermal conductivity [W/m/K]	thermal diffusivity [m2/s]
258.66 K	0.1434	–
258.83 K	0.1434	–
258.95 K	0.1433	–
259.23 K	–	9.77e-08
259.67 K	–	9.83e-08
259.96 K	–	9.82e-08
276.88 K	0.14	–
277.04 K	0.1398	–
277.16 K	0.1398	–
277.47 K	–	9.49e-08
277.87 K	–	9.44e-08
278.16 K	–	9.45e-08
296.36 K	0.1358	–
296.53 K	0.1356	–
296.66 K	0.1356	–
296.93 K	–	8.99e-08
297.35 K	–	9.01e-08
297.65 K	–	9.02e-08
313.44 K	0.1319	–
313.6 K	0.1317	–
313.73 K	0.1317	–
314.03 K	–	8.71e-08
314.41 K	–	8.63e-08
314.7 K	–	8.63e-08
331.99 K	0.1274	–
332.16 K	0.1274	–
332.28 K	0.1272	–
332.56 K	–	8.28e-08
332.96 K	–	8.25e-08
333.24 K	–	8.21e-08

C1=CCCC=C1 [1,3-cyclohexadiene]
Details	thermal conductivity [W/m/K]	thermal diffusivity [m2/s]
258.35 K	0.1451	–
258.52 K	0.1449	–
258.62 K	0.1448	–
258.89 K	–	8.41e-08
259.3 K	–	8.45e-08
259.56 K	–	8.41e-08
264.66 K	0.1428	–
264.8 K	0.1426	–
264.89 K	0.1424	–
265.09 K	–	7.72e-08
265.41 K	–	7.72e-08
265.61 K	–	7.69e-08
279.17 K	0.138	–
279.31 K	0.1379	–
279.41 K	0.1378	–
279.59 K	–	7.36e-08
279.93 K	–	7.41e-08
280.16 K	–	7.41e-08
296.25 K	0.1334	–
296.51 K	0.1332	–
296.69 K	0.1331	–
297.24 K	–	8.95e-08
297.94 K	–	8.98e-08
298.42 K	–	8.98e-08
313.95 K	0.1278	–
314.22 K	0.1276	–
314.41 K	0.1275	–
314.96 K	–	8.51e-08
315.67 K	–	8.53e-08
316.17 K	–	8.51e-08
328.56 K	0.1232	–
328.84 K	0.1231	–
329.08 K	0.1231	–
329.6 K	–	8.17e-08
330.32 K	–	8.17e-08
330.99 K	–	8.19e-08

Cc1cccc(C)c1 [1,3-dimethylbenzene]
Details	thermal conductivity [W/m/K]	thermal diffusivity [m2/s]
258.17 K	0.1393	–
258.42 K	0.1391	–
258.58 K	0.1391	–
259.01 K	–	9.79e-08
259.67 K	–	9.79e-08
260.12 K	–	9.82e-08
275.04 K	0.1353	–
275.28 K	0.1353	–
275.44 K	0.1352	–
275.95 K	–	9.46e-08
276.57 K	–	9.45e-08
277 K	–	9.44e-08
287.36 K	0.1323	–
287.6 K	0.1322	–
287.77 K	0.132	–
288.27 K	–	9.16e-08
288.91 K	–	9.19e-08
289.35 K	–	9.17e-08
294.07 K	0.1305	–
294.32 K	0.1305	–
294.49 K	0.1304	–
294.99 K	–	9.03e-08
295.64 K	–	9.06e-08
296.09 K	–	9.03e-08
311.74 K	0.126	–
312 K	0.1259	–
312.18 K	0.1258	–
312.68 K	–	8.65e-08
313.34 K	–	8.66e-08
313.8 K	–	8.64e-08
328.79 K	0.1218	–
329.04 K	0.1216	–
329.22 K	0.1215	–
329.74 K	–	8.28e-08
330.36 K	–	8.22e-08
330.83 K	–	8.22e-08

C1=CCC=CC1 [1,4-cyclohexadiene]
Details	thermal conductivity [W/m/K]	thermal diffusivity [m2/s]
258.46 K	0.1586	–
258.67 K	0.1584	–
258.82 K	0.1583	–
259.36 K	–	1.06e-07
259.93 K	–	1.05e-07
260.35 K	–	1.05e-07
264.86 K	0.1564	–
265.08 K	0.1563	–
265.23 K	0.1562	–
265.75 K	–	1.04e-07
266.36 K	–	1.04e-07
266.77 K	–	1.04e-07
279.38 K	0.1514	–
279.6 K	0.1512	–
279.76 K	0.1511	–
280.29 K	–	9.95e-08
280.9 K	–	9.93e-08
281.33 K	–	9.92e-08
296.2 K	0.1455	–
296.43 K	0.1453	–
296.6 K	0.1452	–
297.14 K	–	9.5e-08
297.75 K	–	9.45e-08
298.19 K	–	9.45e-08
313.9 K	0.1393	–
314.13 K	0.139	–
314.31 K	0.139	–
314.86 K	–	9.01e-08
315.48 K	–	8.95e-08
315.93 K	–	8.95e-08
328.51 K	0.1343	–
328.75 K	0.1341	–
328.93 K	0.134	–
329.48 K	–	8.61e-08
330.11 K	–	8.57e-08
330.58 K	–	8.57e-08
